Assay results published in ChEMBL document CHEMBL1158463 (J Med Chem, 2009).

System: Canis familiaris
Assay: Toxicity in dog assessed as change in cardiovascular variables up to 5 mg/kg by telemetry study
Format: organism-based, Canis lupus familiaris, Heart
Parameters: dose 5 mg/kg
Settings: in vivo

SMILES | Activity
CCc1ccc(OCc2ccccc2C(=O)Nc2ccc3nc(C)cc(N)c3c2)cc1 | Non-toxic
O=C(NCCCN1CCC2(CC1)OCc1ccccc12)[C@H]1CCCN1Cc1ccccc1 | Non-toxic
O[C@H]1C[C@H](CN2CC[C@H](c3ccc(F)cc3Cl)[C@@H](O)C2)Cc2cccnc21 | Non-toxic
COC(=O)C1Cc2ccccc2N1C(=O)CCN1CCC2(CCc3ccccc32)CC1 (stereo not drawn) | Non-toxic
CCN1CCN(c2cc3[nH]c(C(=O)[C@]4(C)CC[C@](C)(O)CC4)nc3cc2C)CC1 | Non-toxic
CN1CC(C(=O)NCCCN2CCC3(CCc4ccccc43)CC2)CC1=O (stereo not drawn) | Non-toxic
Cc1cccc2c1CC[C@H](CN1CCC(c3c(Cl)cccc3Cl)CC1)C[C@@H]2O | Non-toxic
Cc1ccc2nc(NC(=O)c3ccc(Cl)cc3)nc(N[C@H]3CCCC[C@H]3NC(=N)N)c2c1 | Non-toxic
